Experiments:
[1] = biological target: T1, human GPR40 (hGPR40) (Homo sapiens, UniProt O14842); assay: ERK assay, screening for GPR40 ligands in cell line TXGPR40; type: cell-based; conditions: TXGPR40 cells, class relative to LA; for ERK/GPR40 100 μM: ligand 100 μM
T1 construct: expressed in transfected cells; doxycycline-inducible expression vector

[2] = biological target: T1, human GPR40 (hGPR40); assay: Determination of intracellular Ca2+ concentration (FLIPR), cell line TXGPR40; type: cell-based; conditions: for EC50 / [Ca^2+]/GPR40 10 μM (ratio vs. LA): TXGPR40 cells; for EC50: maximum fluorescence intensity vs ligand concentration, read-out: [Ca^2+]/GPR40 pEC50 (converted); for agonistic activity for GPR40 (in words): cells in which GPR40 has been transgenically expressed; for [Ca^2+]/GPR40 10 μM (ratio vs. LA): relative fluorescence intensity vs LA at 10 μM

T1 sequence (O14842 whole entry): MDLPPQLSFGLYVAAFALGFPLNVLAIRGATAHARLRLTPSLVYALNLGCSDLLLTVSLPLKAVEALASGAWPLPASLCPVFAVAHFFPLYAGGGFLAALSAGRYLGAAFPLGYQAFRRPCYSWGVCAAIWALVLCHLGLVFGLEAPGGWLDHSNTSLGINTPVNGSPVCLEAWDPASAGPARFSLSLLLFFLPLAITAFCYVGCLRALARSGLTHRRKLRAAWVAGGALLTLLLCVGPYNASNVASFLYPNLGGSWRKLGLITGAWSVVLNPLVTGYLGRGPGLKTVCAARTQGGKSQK

SMILES	ERK/GPR40 100 μM [1]	EC50 [2]	agonistic activity for GPR40 (in words) [2]	[Ca^2+]/GPR40 10 μM (ratio vs. LA) [2]	ERK/GPR40 10 μM ([1]; ligand 10 μM)
O=C(O)CCCc1ccc(OCCN(c2ccccc2)c2nccs2)cc1 [NCG46]	++ (++ denotes 50 to 100% of LA)	21.4 µM	showed a specific reactivity	0.30	–
CN(C)c1ccc(N(CCOc2ccc(CCCC(=O)O)cc2)c2ccccn2)cc1 [NCG54]	++ (++ denotes 50 to 100% of LA)	24 µM	showed a specific reactivity	0.07	+ (+ denotes 0 to 100% of LA)
